Values of other authors, collected in PMC7886095 (Drug Design, Development and Therapy, 2021).

## COc1cc(O)c2c(=O)cc(-c3ccc(O)cc3)oc2c1 [GKA, Genkwanin]
  aqueous solubility: < 1 µg/mL
